Reference: patent US20030055077A1, “Method and compositions for the treatment of allergic conditions using pgd2 receptor antagonists” (priority 2002, published 2003)

Tested on: ovalbumin-sensitized guinea pigs
Test: Guinea pig allergic rhinitis model: intranasal pressure after nasal ovalbumin challenge
Format: in vivo
Conditions: single administration, 60 minutes prior to ovalbumin 1% challenge, AUC 0-30 min
Procedure: Male Hartley guinea pigs (250-500 g) purchased from Charles River (St-Constant, Qc, Canada) were used. They were housed in a temperature and humidity controlled environment, in groups of four or five with food and water available ad libitum. Experimental procedures were approved by the Animal Care Committee at Merck Frosst Centre for Therapeutic Research, in accordance with the guidelines of the Canadian Council on Animal Care.
Sensitization: The animals were injected intrapeRitoneally with 0.5 ml of an ovalbumin solution (100 μg/ml) containing 100 mg/ml aluminum hydroxide in 0.9% saline. […]
Following the surgical preparation, gallamine (2 mg/kg, i.v.) was administered to suppress spontaneous breathing. […] The changes in the intranasal pressure were monitored through a pressure transducer (Validyne DP-45, membrane 6-26, Validyne Corp., Northridge, Calif.) connected to a side arm of the nasal cannula. Values were recorded every 5 seconds using a data acquisition system (Modular Instruments, Malvern, Pa.). […] The changes in intranasal pressure were recorded for 30 minutes following the nasal challenge, using the peak response.
The effects of test compounds were evaluated on the increased intranasal pressure following a nasal challenge with an aerosol of ovalbumin 1% for 3 minutes. […]

Row | SMILES | effect on the increase in intranasal pressure produced by aerosol of ovalbumin (1 mg/kg i.p.) | effect on the increase in intranasal pressure produced by aerosol of ovalbumin (5 mg/kg i.p.)
1 | C[S@+]([O-])c1cccc2c3c(n(Cc4ccc(Cl)cc4)c12)[C@@H](CC(=O)O)CCC3 [Compound I, 2-[(1R)-9-(4-chlorobenzyl)-8-((S)-methylsulfinyl)-2,3,4,9-tetrahydro-1H-carbazol-1-yl]acetic acid] | no significant effect | 
2 | COc1ccc(CN(CCN(C)C)c2ccccn2)cc1 [mepyramine] |  | no significant effect
